Assay results as given in article PMC8863796 (Communications Biology, 2022).
Several values for one entry are separate records, joined by “and”; a condition that tells them apart may be missing. Identical values can stand only once. Entries after “also recorded” stand apart in the source; their conditions may differ. Like-named read-outs stand apart in the source and are kept apart here.

Assays:
[1] = target: SARS-CoV-2 exonuclease complex (nsp14/nsp10) (Severe acute respiratory syndrome coronavirus 2, UniProt P0DTD1); assay type: biochemical; conditions: 30 nM nsp14/nsp10, 500 nM RNA; 30, 100, 300 µM
[2] = test system: SARS-CoV-2; assay type: cell-based; set-up: Response: unit not given here
[3] = Cytotoxicity assay (XTT); assay type: cell-based; conditions: human; Table S-1; 3 days treatment, XTT; read-out: CC50
Description: Monolayers of 1.5 × 10^4 cells in 96-well plates were treated for 3 days with various concentrations (semi-log dilutions from 1000 to 10 µM) of the antiviral drugs. Then, 5 mg/ml 2,3-bis-(2-methoxy-4-nitro-5-sulfophenyl)-2H-tetrazolium-5-carboxanilide (XTT) in DMEM was added to the cells in the presence of 0.01% N-methyl dibenzopyrazine methyl sulfate (PMS). After incubating for 4 h at 37 °C, the cells were measured in a spectrophotometer at 492 nm and 620 nm.

[4] = test system: SARS-CoV-2; assay: microbe, parasite or virus in culture; assay type: cell-based; conditions: for virus titer: Calu-3, MOI 0.1, three columns per treatment; for EC25: concentration used in combinations
[5] = Drug2 100 nM alone (Drug1 0 nM)
[6] = Drug2 1000 nM alone (Drug1 0 nM)
[7] = Drug2 5000 nM alone (Drug1 0 nM)
[8] = Severe acute respiratory syndrome coronavirus 2, 48 h, Calu-3 cells, MOI 0.1, 48-72 h, PFU in Vero E6, NS5A inhibitor at fixed concentration in combinations

| Compound | inhibition of SARS-CoV-2 exonuclease activity [1] | Response (percentage of inhibition) ([2]; Conc1 10 nM, Conc2 0 nM) | Response (percentage of inhibition) ([2]; Conc1 100 nM, Conc2 0 nM) | Response (percentage of inhibition) ([2]; Conc1 1000 nM, Conc2 0 nM) | CC50 at 3 days [3] | Response (percentage of inhibition) ([2]; Conc1 0 nM, Conc2 100 nM) | Response (percentage of inhibition) ([2]; Conc1 0 nM, Conc2 1000 nM) | Response (percentage of inhibition) ([2]; Conc1 0 nM, Conc2 5000 nM) | Response [2, 5] | Response [2, 6] | Response [2, 7] | combination effect (SynergyFinder) ([2]; with RDV) | EC25 ([4]; Calu-3 cells) | other results |
| --- | --- | --- | --- | --- | --- | --- | --- | --- | --- | --- | --- | --- | --- | --- |
| CC(C)c1nc(CN(C)C(=O)N[C@H](C(=O)N[C@@H](Cc2ccccc2)C[C@H](O)[C@H](Cc2ccccc2)NC(=O)OCc2cncs2)C(C)C)cs1 [Ritonavir] | exonuclease activity was inhibited; also recorded: inhibit the SARS-CoV-2 exonuclease in a concentration-dependent manner, but with less potency than Pibrentasvir and Ombitasvir | – | – | – | – | – | – | – | – | – | – | – | – | – |
| CCC(CC)COC(=O)[C@H](C)N[P@](=O)(OC[C@H]1O[C@@](C#N)(c2ccc3c(N)ncnn23)[C@H](O)[C@@H]1O)Oc1ccccc1 [Remdesivir] | – | 43% | 76.92% | 99.13% | 480 ± 55 µM | – | – | – | – | – | – | – | – | Response (percentage of inhibition) ([2]; Conc1 1 nM, Conc2 0 nM): 20%; EC99 Mean ([4]; Calu-3 cells, MOI 0.1, 48-72 h, PFU in Vero E6, NS5A inhibitor at fixed concentration in combinations): 1.1 µM; virus titer ([4]; Drug Concentration 0.01 μM, listed as RDV): 6.40E+05 PFU/mL and 5.76E+05 PFU/mL and 6.08E+05 PFU/mL; virus titer ([4]; Drug Concentration 0.1 μM, listed as RDV): 3.20E+05 PFU/mL and 1.92E+05 PFU/mL and 2.56E+05 PFU/mL; virus titer ([4]; Drug Concentration 10 μM): 2.00E+03 PFU/mL; fold improvement of efficacy at the 90% level ([4]; by Pibrentasvir (0.1 μM)): six-; fold improvement of efficacy at the 99% level ([4]; by Pibrentasvir (0.1 μM)): threefold |
| Cc1cccc(C)c1OCC(=O)N[C@@H](Cc1ccccc1)[C@@H](O)C[C@H](Cc1ccccc1)NC(=O)[C@H](C(C)C)N1CCCNC1=O [Lopinavir] | exonuclease activity was inhibited; also recorded: inhibit the SARS-CoV-2 exonuclease in a concentration-dependent manner, but with less potency than Pibrentasvir and Ombitasvir | – | – | – | – | – | – | – | – | – | – | – | – | – |
| COC(=O)N[C@H](C(=O)N1CCC[C@H]1c1nc(-c2ccc(-c3ccc(-c4c[nH]c([C@@H]5CCCN5C(=O)[C@@H](NC(=O)OC)C(C)C)n4)cc3)cc2)c[nH]1)C(C)C [Daclatasvir] | – | – | – | – | 38 ± 5 µM | 3% | 45% | 62% | 3 | 45 | 62 | additive (between 10 and −10) | 0.5 µM | Response (percentage of inhibition) ([2]; Conc1 0 nM, Conc2 500 nM): 10%; Response ([2]; Drug2 500 nM alone (Drug1 0 nM)): 10; combination effect (SynergyFinder) ([2]; with the other RdRp inhibitors tested (Fig. 8b-d)): synergistic (scores above 10); EC50 [4, 8]: 0.7 µM; EC90 [4, 8]: 3.8 µM |
| COC(=O)N[C@H](C(=O)N1CCC[C@H]1C(=O)Nc1ccc([C@@H]2CC[C@@H](c3ccc(NC(=O)[C@@H]4CCCN4C(=O)[C@@H](NC(=O)OC)C(C)C)cc3)N2c2ccc(C(C)(C)C)cc2)cc1)C(C)C [Ombitasvir] | – | – | – | – | 70 ± 12 µM | 20% | 50% | 75% | 20 | 50 | 75 | synergistic (scores above 10) | 0.1 µM | Response (percentage of inhibition) ([2]; Conc1 0 nM, Conc2 10 nM): 2%; Response ([2]; Drug2 10 nM alone (Drug1 0 nM)): 2; combination effect (SynergyFinder) ([2]; with Favipiravir): synergistic (scores above 10); combination effect (SynergyFinder) ([2]; with Sofosbuvir): synergistic (scores above 10); combination effect (SynergyFinder) ([2]; with Tenofovir): synergistic (scores above 10) |
| CC(C)OC(=O)[C@H](C)N[P@](=O)(OC[C@H]1O[C@@H](n2ccc(=O)[nH]c2=O)[C@](C)(F)[C@@H]1O)Oc1ccccc1 [Sofosbuvir] | – | 10% | 20% | 74.62% | 512 ± 34 µM | – | – | – | – | – | – | – | – | Response (percentage of inhibition) ([2]; Conc1 10000 nM, Conc2 0 nM): 76.92%; virus titer ([4]; Drug Concentration 0.01 μM): 6.40E+05 PFU/mL and 1.28E+06 PFU/mL and 9.60E+05 PFU/mL; virus titer ([4]; Drug Concentration 1 μM): 3.52E+05 PFU/mL |
